{"source": "patent US4065575A", "about": "“3-Aminomethyl derivatives of 4-chromanone” (Joullie International, priority 1975, dated 1977)", "key": {"[1]": {"test": "Cardiovascular action in dogs", "assay_type": "in vivo, male Beagle dogs", "method": "Male Beagle dogs weighing 9 to 12 kg. were anaesthetised by intrasaphenous injection of a 2% solution of chloralose in physiological solution, at a dose of 100 mg./kg.\nThe anaesthesia is maintained by slow perfusion of 5% pentobarbital (1.2 ml./hour).\nThe animals are tracheotomised and placed under assisted respiration by means of a Bird respirator. Their oxygenation and their acid-base equilibrium are controlled by determination of the pH, the pCO2 and the pO2 on blood samples taken from a collateral of the brachial artery (pH/gas analyser for blood, IL model 213/227).\nThe different parameters are recorded on a polygraph."}, "[2]": {"system": "hypertensive effects of electrical stimulation, adrenaline and noradrenaline", "test": "α-Sympatholytic effects in amyeliated rats", "assay_type": "in vivo", "conditions": "for % variation of the hypertensive effects obtained with adrenaline: adrenaline 1.25 to 2.5 μg./kg.; for % variation of the hypertensive effects obtained with noradrenaline: noradrenaline 1.25 to 2.5 μg./kg.", "source_text": "The α-sympatholytic effects of LJ 1052 and LJ 1053 are compared with those of isoxsuprine in amyeliated rats which have been prepared by a method derived from those of Shipley and Tilden (Proc. soc. Exp. Biol. Med. 1947, 64, 453-455) and of Gillespie and Muir (Br. J. Pharmac. Chemother. 1967, 30, 78-87).\nThe effects on the blood pressure of electrical stimulation of the thoracolumbar sympathic nerve (rectangular signals = voltage 20 to 40 volts; width 2 m. sec; frequency 10 secs.; duration 5 to 10 secs.) and of injections of adrenaline (1.25 to 2.5 μg./kg.) and of noradrenaline (1.25 to 2.5 μg./kg.) are determined before and after injection of the products tested."}, "mice": {"system": "mice", "test": "Acute toxicity in mice (LD 50)", "assay_type": "in vivo", "conditions": "intravenous; in words", "method": "(§1) The study is carried out on batches of 5 Swiss female mice of the NMRI Han. strain. The products are administered either intravenously (into the caudal vein) in solution in a 9 g..permill. sodium chloride solution, or orally (probang) in suspension in a 10% solution of gum arabic.\n(§2) The animals are observed for the 15 days following the administration of the products.\n(§3) The LD 50 values are calculated by the method of Karber and Behrens (Arch. Exp. Pathol. Pharm. 177, 1935, page 379)."}, "[3]": {"test": "Acute toxicity in mice (LD 50)", "assay_type": "in vivo", "conditions": "mouse, in vivo, mice, 15 days observation", "method": "as §1, §2, §3"}, "platelet aggregation": {"system": "platelet aggregation", "test": "Anti-platelet-aggregation in vitro", "assay_type": "cell-based", "conditions": "in words"}, "[4]": {"system": "isolated auricle of a rabbit", "test": "Peripheral vasomotoricity, isolated and perfused auricle of a rabbit", "method": "The flow rate of the liquid issuing from the veins is recorded by electronic contact on a polygraph. The products to be studied are injected at increasing doses into the perfusion tube and their actions are compared to that of isoxsuprine used as the reference substance.\nThe results, collected in Table No. III, are expressed in the maximum percentage increase of the flow rate at the various doses used."}, "ADP platelet aggregation": {"system": "ADP platelet aggregation", "test": "ADP aggregation test", "assay_type": "cell-based", "conditions": "in words"}, "[5]": {"conditions": "0.04 mg./kg. i.v. (1/1,000 LD 50)"}, "[6]": {"conditions": "0.04 mg./kg. i.v. (1/1,000 LD 50), first or only phase"}, "[7]": {"conditions": "dose 50 g./kg. (so in the source)"}, "[8]": {"conditions": "dose 100 g./kg. (so in the source)"}, "[9]": {"conditions": "dose 500 g./kg. (so in the source)"}, "[10]": {"conditions": "dose 2,500 g./kg. (so in the source)"}}, "note": "Entries after “also recorded” stand apart in the source; their conditions may differ. Where a name gives a salt, the structure may show the parent alone."}
{"smiles": "COCCNCC1COc2ccccc2C1=O", "note": "(stereo not drawn) [LJ 1052, 3-(2-Methoxyethylaminomethyl)-4-chromanone hydrochloride]", "values": [{"measurement": "Diastolic AP, duration of action", "setting": "[1]; [5]", "value": 2, "unit": "min"}, {"measurement": "Diastolic AP, maximum per cent variation", "setting": "[1]; [5]", "value": -29, "unit": "%"}, {"measurement": "FF, duration of action", "setting": "[1]; [5]", "value": 30, "unit": "min"}, {"measurement": "Hb (heart beat), maximum per cent variation", "setting": "[1]; [5]", "value": "+14%"}, {"measurement": "Hb, duration of action", "setting": "[1]; [5]", "value": 25, "unit": "min"}, {"measurement": "LVP, duration of action", "setting": "[1]; [5]", "value": 25, "unit": "min"}, {"measurement": "Mean AP, duration of action", "setting": "[1]; [5]", "value": 2, "unit": "min"}, {"measurement": "Mean AP, maximum per cent variation", "setting": "[1]; [5]", "value": -25, "unit": "%"}, {"measurement": "Systolic AP, duration of action", "setting": "[1]; [5]", "value": 30, "unit": "min"}, {"measurement": "Systolic AP, maximum per cent variation", "setting": "[1]; [5]", "value": "+13%"}, {"measurement": "LVP (left ventricular pressure), maximum per cent variation", "setting": "[1]; [6]", "value": "+9%"}, {"measurement": "dLVP/dt, maximum per cent variation", "setting": "[1]; [6]", "value": "+34%"}, {"measurement": "dLVP/dt, duration of action", "setting": "[1]; 0.04 mg./kg. i.v. (1/1,000 LD 50), only phase", "value": 30, "unit": "min"}, {"measurement": "cardiovascular action compared with isoxsuprine", "setting": "[1]; in words", "value": "comparable to or even greater than that of isoxsuprine"}, {"measurement": "femoral flow rate", "setting": "[1]; low doses, in words", "value": "activity comparable to that of isoxsuprine"}, {"measurement": "% variation of the hypertensive effects obtained with electrical stimulation", "setting": "[2]; [7]", "value": 0, "unit": "%"}, {"measurement": "% variation of the hypertensive effects obtained with adrenaline", "setting": "[2]; [7]", "value": -15, "unit": "%"}, {"measurement": "% variation of the hypertensive effects obtained with noradrenaline", "setting": "[2]; [7]", "value": -11, "unit": "%"}, {"measurement": "% variation of the hypertensive effects obtained with electrical stimulation", "setting": "[2]; [8]", "value": 0, "unit": "%"}, {"measurement": "% variation of the hypertensive effects obtained with adrenaline", "setting": "[2]; [8]", "value": -28, "unit": "%"}, {"measurement": "% variation of the hypertensive effects obtained with noradrenaline", "setting": "[2]; [8]", "value": -12, "unit": "%"}, {"measurement": "% variation of the hypertensive effects obtained with electrical stimulation", "setting": "[2]; [9]", "value": -20, "unit": "%"}, {"measurement": "% variation of the hypertensive effects obtained with adrenaline", "setting": "[2]; [9]", "value": -77, "unit": "%"}, {"measurement": "% variation of the hypertensive effects obtained with noradrenaline", "setting": "[2]; [9]", "value": -38, "unit": "%"}, {"measurement": "% variation of the hypertensive effects obtained with electrical stimulation", "setting": "[2]; [10]", "value": -80, "unit": "%"}, {"measurement": "% variation of the hypertensive effects obtained with adrenaline", "setting": "[2]; [10]", "value": -77, "unit": "%"}, {"measurement": "% variation of the hypertensive effects obtained with noradrenaline", "setting": "[2]; [10]", "value": -50, "unit": "%"}, {"measurement": "α-sympatholytic effect, comparison", "setting": "[2]; same doses, in words", "value": "less α-sympatholytic than LJ 1053 and isoxsuprine"}, {"measurement": "intravenous LD 50 in mice (comparison of three products)", "setting": "mice", "value": "practically identical"}, {"measurement": "LD50 at 360 h", "setting": "[3]; intravenous administration", "value": 47, "unit": "mg/kg"}, {"measurement": "LD50 at 360 h", "setting": "[3]; oral administration", "value": 475, "unit": "mg/kg"}, {"measurement": "anti-platelet-aggregation properties", "setting": "platelet aggregation", "value": "marked anti-platelet-aggregation properties in vitro"}, {"measurement": "activation at 0.0001 mg", "setting": "[4]; Oryctolagus cuniculus, dose 0.1 μg., read-out: Maximum variations in the flow rate", "value": 79, "unit": "%"}, {"measurement": "activation at 0.001 mg", "setting": "[4]; Oryctolagus cuniculus, dose 1 μg., read-out: Maximum variations in the flow rate", "value": 77, "unit": "%"}, {"measurement": "activation at 0.01 mg", "setting": "[4]; Oryctolagus cuniculus, dose 10 μg., read-out: Maximum variations in the flow rate", "value": 100, "unit": "%"}, {"measurement": "activation at 0.1 mg", "setting": "[4]; Oryctolagus cuniculus, dose 100 μg., read-out: Maximum variations in the flow rate", "value": 150, "unit": "%"}, {"measurement": "duration of the effects / of the action", "setting": "[4]; at the highest doses", "value": "≥ 30", "unit": "min"}, {"measurement": "peripheral vasodilatory action", "setting": "[4]; in words, hydrochloride", "value": "great; also recorded: as active as isoxsuprine; also recorded: great even at very low doses"}, {"measurement": "anti-aggregation activity compared with adenosine", "setting": "ADP platelet aggregation", "value": "almost as active as adenosine"}]}
